Experimental data from US10314313B2, “Antimicrobial materials exhibiting synergistic efficacy” (CORNING INCORPORATED, priority 2015, dated 2019).

Tests used:
bacteria = details: cited from earlier work
fungi = details: alone
mold = experiment: Amount of biocide necessary to inhibit fungi growth, mold (FIG. 1); type: cell-based
Description: (§1) The amount of ZnPT and copper-containing glass necessary to inhibit fungi growth was evaluated.

algae = details: in combination with Cu; cited from earlier work
mildew = experiment: Amount of biocide necessary to inhibit fungi growth, mildew (FIG. 2); type: cell-based
Description: as §1

marine organisms = details: cited from earlier work

Compound: N#Cc1c(-c2ccc(Cl)cc2)[nH]c(C(F)(F)F)c1Br [Tralopyril, 4-bromo-2-(4-chlorophenyl)-5-(trifluoromethyl)-1H-pyrrole-3-carbonitrile]
- activity against bacteria (bacteria): not sufficient

Compound: Zinc pyrithione [ZnPT]
- inhibition of fungi (fungi): no inhibition of fungi
- amount needed to reduce mold growth (mold): 10 g/gallon
- algaecide activity, concentration range (algae): 1-100 ppm (μg/L)
- amount needed to reduce mildew growth (mildew): 100 g/gallon

Compound: [O-][n+]1ccccc1[S][Cu][S]c1cccc[n+]1[O-] [CuPT]
- toxicity to marine organisms (marine organisms): more toxic than ZnPT
